According to US10517854B2, “Dosing regiments of celgosivir for the treatment of dengue” (60 Degrees Pharmaceuticals, LLC, priority 2013, dated 2019):
Entries after “also recorded” stand apart in the source; their conditions may differ. Read-outs that look alike come from different tables or passages of the source.

Assays:
[1] = test system: EDEM, XBP1, CHOP; assay: Host gene products during drug-induced unfolded protein response; type: cell-based; details: data not shown
Excerpt: The pro-survival products enhance the clearance of misfolded proteins by directing them to the proteosome for degradation.

[2] = test system: DENV2 infected BHK21; assay: Fluorescence microscopy for NS1 in infected BHK21 cells; type: cell-based, dengue virus; details: 20 μM, 24 hr
Method: BHK21 cells were infected with DENV2 and treated with 20 μM celgosivir or saline. After 24 hr incubation, cells were stained with nuclear stain diamidino-2-phenylindole (DAPI) or with a MAb against NS1 in conjunction with a secondary antibody conjugated with Alexa-488 (green), then examined by fluorescent microscopy for the presence of NS1, a marker for viral replication.

[3] = test system: DENV1-4; assay: Inhibition of replication across dengue serotypes (CFI); type: cell-based; details: Dengue virus, DENV1 / DENV2, read-out: EC50 values for the other three serotypes
[4] = test system: DENV3; assay: Cell-based flaviviral immunodetection assay (CFI), DENV3; details: Dengue virus, BHK-21; DENV3, BHK21 cells, 48 hours
[5] = design: tmax: unit not given here; details: cited from earlier work
[6] = test system: DENV4; assay: Cell-based flaviviral immunodetection assay (CFI), DENV4; details: Dengue virus, BHK-21; DENV4, BHK21 cells, 48 hours
[7] = cited from earlier work
[8] = humans, cited from earlier work
[9] = test system: DENV2 in THP-1 human monocytes; assay: ADE infection of human monocytes (THP-1), plaque assay; type: cell-based; details: Dengue virus, THP-1, DENV2 + 4G2 antibody, 48 hours, read-out: EC50, suppression of viral replication under ADE condition
Method: The activity of celgosivir in infected human monocytes, one of the primary circulating cell types infected by dengue virus, was examined, THP-1 cells were grown in RPMI-1640 maintenance medium containing 10% fetal calf serum and 1% Penicillin-streptomycin and cultured in 37° C. incubator supplemented with 5% CO2. For ADE infection in THP-1 cells, virus (DENV2, MOI-10) was mixed with sub-neutralizing concentration of humanized 4G2 monoclonal antibody (0.05 μg/0.5 ml) and allowed to incubate on ice for 1 hr in the serum free medium, to allow immune complex formations. The immune complex was then added on to THP-1 (1×10^5) cells per well in a 24 well plate and further incubated for 2 hours at 37° C. incubator. An excess unbound immune complex was then removed by spinning cells at 1000 rpm for 5 min and then cells were supplemented with complete growth maintenance medium. For drug testing in the ADE condition, cells were mock (untreated) or celgosivir-treated for 48 hours, and finally media supernatant was collected for plaque assay analysis.

[10] = Pharmacokinetics mouse studies; details: in vivo
Method: The concentration profile of celgosivir and castanospermine in the mouse after a single IP dose of celgosivir at a dose of 50 mg/kg is illustrated in FIG. 6A. Serum concentrations were measured using a validated LC/MS/MS assay performed. Celgosivir was measurable in serum only up to 1 hr post-dosing.
The castanospermine concentration profile after dosing at 50 mg/kg BID for 5 days was calculated by nonparametric superposition (FIG. 6B). This dosing regimen of celgosivir protected 100% of mice in the lethal ADE dengue infection model.

[11] = test system: DENV2 strain NGC subgenomic replicon; assay: Replicon assay (luciferase, A549 replicon cell line); type: cell-based; details: Dengue virus, A549 replicon cells, 48 hour
Method: The DENV subgenomic replicon was derived from the DENV2 strain NGC and consists of a luciferase reporter and a puromycin resistance gene for stable transfection. (7) Only the nonstructural proteins NS1, NS2A, NS2B, NS3, NS4A, NS4B, and NS5 were represented in the replicon construct. Of the nonstructural proteins, only NS1 is known to be glycosylated.
The stably transfected A549 replicon cell line was plated into a 96-well plate in the presence of various concentrations of test compounds and incubated for 48 hour at 37° C. in 5% CO2 incubator. The luciferase activity of the replicon treated with various concentrations of the test compound was measured using EnduRen (Promega) at a 1:1000 dilution followed by incubation for 2 hrs before the luminescence was read using a Tecan plate-reader. The data was plotted against the log transformation of the concentration of the compounds to obtain a dose-response curve to calculate the EC50 value.

[12] = test system: DENV2; details: cited from earlier work
[13] = test system: DENV1; assay: Cell-based flaviviral immunodetection assay (CFI), DENV1; details: Dengue virus, BHK-21; DENV1, BHK21 cells, 48 hours
[14] = healthy rats, single dose 35 mg/kg PO

## CCCC(=O)O[C@H]1CN2CC[C@H](O)[C@@H]2[C@@H](O)[C@@H]1O.Cl [Celgosivir, celgosivir]
[1]
  apoptotic markers such as CHOP: down-regulated
  pro-survival host gene products such as EDEM and XBP1: upregulation
[2]
  NS1 / viral replication by immunofluorescence: almost complete suppression of viral replication; also recorded: very low levels of NS1
[3]
  EC50: 310 to 650 nM
[4]
  EC50: 680 ± 20 nM
[5]; 400 mg/kg celgosivir PO
  mean Cmax in the portal vein: 1.9 µg/mL
[5]; [14]
  AUC: 10.5
  Cmax: 8.76 ± 1.15 µg/mL
  tmax: 0.44±0.01
[5]; portal vein, 400 mg/kg celgosivir PO
  AUC 0-60 min: 1 µg·h/mL
[5]; rat
  Oral bioavailability: 93%
  half-life: 2.7 h
  oral clearance (CL/F): 2.5 L/h/kg
[6]
  EC50: 310 ± 120 nM
[7]; humans
  Cmax and AUC versus dose: increase in proportion to dose
  oral clearance: 12 L/h
  terminal half-life: 18 h
[7]; only castanospermine detected in plasma
  conversion in humans: rapidly convert to castanospermine
[8]; HIV drug trials, for 184 days
  maximum tolerated dose (MTD): 400 mg per day
[8]
  adverse events: largely gastrointestinal, namely flatulence and diarrhea, of mild to moderate intensity
  serious adverse events: No serious adverse events have been reported
  serum creatine kinase: Asymptomatic elevations
  time to reversal of creatine kinase elevations after discontinuation: ≤ 2 weeks
[9]
  EC50: 500 nM
[10]
  absorption compared with castanospermine: more rapidly and efficiently absorbed than castanospermine
  species detected in plasma after celgosivir: only castanospermine was detected in the plasma
[10]; ip, 50 mg/kg
  time celgosivir measurable in serum post-dosing: up to 1 hr
[11]
  EC50: 2200 nM
[12]; given at the time of infection
  reduction of viremia: 88%
[12]; treatment delayed by 24 hours
  reduction of viremia: 55%
[13]
  EC50: 650 ± 160 nM
